Reference: publication PMC6950821, “Bioactivity Evaluation of a Novel Formulated Curcumin” (Nutrients, 2019)
Read-outs that look alike come from different tables or passages of the source.

Columns and labels:
Hep3B cells [1] = experiment: MTT viability assay, Hep3B; format: cell-based, human; conditions: dose-dependent
Description: (§1) After incubation, the media were removed from the wells.
Supplementary Figure 6. Effect of sorafenib with or without curcumin/formulated curcumin on Mahlavu and Hep3B cell viability. (A) Mahlavu and (B) Hep3B cells were treated with […]
(conventional)/formulated curcumin for 48 hours. Percentage of inhibition on Mahlavu and Hep3B cells was measured by MTT assay. Data are presented as means ± SEM. Results are representative of three independent experiments.

LC3-II = experiment: Western blot of LC3-II, Hep3B; format: cell-based, human; conditions: 10 μM sorafenib, 30 μM conventional curcumin, 48 h
Description: (§2) The cells were incubated with various treatment (conventional and formulated curcumin or combination of sorafenib and conventional and formulated curcumin), and then collected for western blot. Aliquots of cell lysates containing 20–50 μg of protein were separated by SDS-polyacrylamide gel electrophoresis (SDS-PAGE), transferred onto a polyvinylidene difluoride (PVDF) membrane and detected using specific primary and secondary antibodies. The protein bands were visualized by an enhanced chemiluminescence (ECL) detection kit (Immobilon^TM western, Millipore). The membranes were reprobed for β-actin as a loading control. All western blots were carried out at least three times for each experiment. The data were normalized to β-actin. The following primary antibodies were used: anti-extracellular regulated protein kinases (ERK), anti-caspase-3, anti-poly (ADP-ribose) polymerase (PARP) (all from Cell Signaling Technology) and anti-aurora kinase A (AURKA) (BD Biosciences). All antibodies were used at a 1:1000 dilution.
(§3) formulated curcumin on HCC cell lines. (A) Huh7 cells were treated with various concentrations of
(§4) Cell viability was determined
(§5) cells were examined by flow cytometry.
(§6) were quantified using WinMDI 2.8 software.
(§7) compared to the control group.
(§8) μM of conventional curcumin for 48 h.
(§9) Quantification of cleavage-caspase-3
(§10) are representative of three independent experiments. […]

Huh7 cells [2] = experiment: Annexin V and PI double staining by flow cytometry; format: cell-based, human; conditions: Huh7, 10–60 μM, 24 h, dose-dependent
Description: The Huh7 were incubated with various concentrations of conventional and formulated curcumin for 24 h. Annexin V/PI staining was performed to quantify cell apoptosis using an Annexin V-fluorescein isothiocyanate (FITC) Apoptosis Detection Kit (BioVision, Inc., Milpitas, CA, USA) according to the manufacturer’s protocol. Annexin V-FITC was then added followed by incubation for 15 minutes in the dark in a 100 µL cell suspension. PI was then spiked into 400 µL Annexin V binding buffer and added immediately to the cell suspension, and subsequently analyzed on a FACScan flow cytometer (BD Biosciences, USA).

PLC5 cells = experiment: MTT viability assay, PLC5; format: cell-based; conditions: 72 h (Figure 6C)
Description: (§11) Cells were seeded into a 96-well plate (1500–2000 cells/well) overnight and then treated with curcumin and the formulated curcumin respectively for 0, 24, 48, 72, 96 and 120 h. After treatment, […] 3-(4,5-cimethylthiazol-2-yl)-2,5-diphenyl tetrazolium bromide (MTT) was added to each well and cultured for 2 h at 37 °C. After incubation, the media were removed from the wells. The formazan crystals formed were then solubilized in DMSO at room temperature for 10 minutes, and then the absorbance was measured in a multimode microplate reader at 570 nm.

[3] = rat plasma, oral, cited from earlier work
Hep3B cells [4] = experiment: Cell cycle analysis (PI, flow cytometry), sub-G1 population; format: cell-based, human; conditions: 48 h, 30 μM conventional curcumin, 10 μM sorafenib
Description: After treatment, the cells were collected by trypsinization and fixed in precooled 70% ethanol overnight. The cells were then incubated with PI in the presence of RNase A. The DNA content was analyzed by a FACSCalibur, and the data were analyzed by Flowjo software. The percentage of cells in the sub-G1 was used to indicate the apoptosis rate.
as §3, §4, §5, §6, §7, §8, §9
are representative of three independent experiments.
tetrazolium bromide; SEM, standard error of the mean.

[5] = Dissolution test, USP 41 basket method, 1% SDS medium; format: physicochemical; conditions: 37 °C
Description: A dissolution test was conducted by the US Pharmacopeia 41 basket method (apparatus 1) using a dissolution tester (708-DS Dissolution apparatus, Agilent, USA). The samples of 89 mg conventional curcumin (equivalent to 72 mg curcumin) and 2180 mg formulated curcumin (equivalent to 72 mg curcumin) were placed into 900 mL of dissolution medium containing 1% sodium dodecyl sulfate (SDS) at 37 °C ± 0.5 °C, under a stirring speed of 100 ± 2 rpm. A 5 mL sample was withdrawn at each time interval (5, 10, 15, 20, 30, 45, and 60 minutes) and was mixed and filtered through a 0.45-µm pore membrane. Then, 2 mL of filtrate was diluted with mobile phase so that the total volume became 10 mL and subjected to HPLC analysis (Agilent 1260, USA). The HPLC program consisted of a mobile phase of tetrahydrofuran: 0.1% citric acid solution (4:6). The column used was 4.6 mm × 20 cm with 5-µm packing L1. The flow rate was 1 mL/minute, and the injection volume was 20 µL using a 420 nm wavelength detector. The percentages of curcumin dissolved from the conventional curcumin and pellets (formulated curcumin) into the medium were calculated and compared.

Huh7 cells [6] = experiment: JC-1 mitochondrial membrane potential assay; format: cell-based, human; conditions: Huh7, JC-1, 10, 30, and 60 µM, concentration-dependent
Description: We employed 5, 5’, 6, 6’-tetrachloro-l, 1’, 3, 3’-tetraethylbenzimidazolcarbocyanine iodide (JC-1), which was obtained from Cayman Chemical Co., to analyze the mitochondrial membrane potential. The cells were seeded in 96-well black plates at a density of 7000 cells/well and cultured overnight. After treatment, JC-1 staining solution was added to each well and incubated at 37 °C for 15–30 minutes in the dark. The plates were obtained by centrifuged at 400 × g at room temperature for 5 minutes, and the supernatant was discarded. Then, JC-1 assay buffer was added to each well, followed by centrifugation at 400 × g at room temperature for 5 minutes, after which the supernatant was discarded. Finally, JC-1 assay buffer was added again to each well for fluorescent analysis using a fluorescent plate reader.

Mahlavu cells = experiment: MTT viability assay, Mahlavu; format: cell-based; conditions: 72 h (Figure 6B)
Description: as §11

Huh7 cells [7] = experiment: MTT proliferation and viability assay, Huh7; format: cell-based, human; conditions: for IC50: Homo sapiens; for cell viability: dose-dependent
Description: as §1

caspase-3 [8] = experiment: Western blot of cleaved caspase-3, Huh7; format: cell-based, human; conditions: dose-dependent
Description: as §2

ERK = experiment: Western blot of ERK phosphorylation, Huh7; format: cell-based, human; conditions: Huh7, 10–60 μM, 48 h
Description: as §2

[9] = Pharmacokinetic study after oral gavage, curcumin in rat plasma by LC/MS/MS; format: in vivo, male Sprague Dawley (SD) rats; conditions: 500 mg/kg, n = 5
Description: All animal treatment procedures followed the Guide for the Care and Use of Laboratory Animals (National Institutes of Health (NIH) publication, 85–23, revised 1996) as well as the Animal research: Reporting in vivo experiments (ARRIVE) guidelines, and were approved by the Animal Research Committee at National Yang-Ming University, Taipei, Taiwan, under Institutional Animal Care and Use Committees (IACUC) approval no: 990103. All surgeries and experimental procedure were carried out under anesthesia with all efforts to minimize animal suffering. Twelve male Sprague Dawley (SD) rats (270 ± 15 g body weight) were obtained from Bio-Lasco, Taipei, Taiwan. Water was provided ad libitum, regardless of administration route. All animals were acclimatized and quarantined in quarantine room of the Rosetta animal facility for about 1 week, and then transferred to feeding room. The humidity and temperature were well controlled as 30%–70% and 19–25 °C. The light and dark cycle was set as 12 h: 12 h. Food and drinking water were allowed ad libitum during housing. Rats were randomly divided into two groups treated with curcumin and formulated curcumin. […] A 300 μL blood sample was collected from the tail vein into a tube rinsed with heparin at 0, 0.25, 0.5, 1, 1.5, 2, 4, 6 h after oral administration. Plasma was obtained by centrifuging the blood sample at 4000 rpm for 10 minutes at 4 °C. The 10 μL plasma was mixed with 50 μL of the internal standard solution containing 0.1 ng/µL of agomelatine. The samples were vortexed and centrifuged at 13,000 rpm for 5 minutes. The 50 µL of supernatant was transferred to the 1.5 mL tube contained 50 µL solution of 25% acetonitrile and 0.1% acetic acid. After that, 50 μL of the solution was injected onto LC-MS system. Curcumin concentrations in the samples were determined by positive ion electrospray tandem mass spectrometry using multiple reaction monitoring (MRM). Separation of curcumin was conducted on a Cosmosil column (5C18-MS-IIPacked column, 120 Å, 5 µm, 4.6 mm I.D. x 150 mm; NACALAI TESQUE, Inc., Japan) with a mobile phase of acetonitrile-water-formic acid. […] Pharmacokinetic analysis was calculated using a non-compartmental model with the Phoenix WinNonlin® (Version 8.0) software. The area under the drug concentration-time curve (AUC) was used to measure the total amount of curcumin reaching the systemic circulation. The relative oral bioavailability (BA) of curcumin was calculated according to the following equation: […] The pharmacokinetic results were represented as the mean ± SD. Statistical analysis was performed by t test (SPSS version 10.0) to compare the differences between groups. The level of significance was set at p < 0.05.

Aurora-A = experiment: Western blot of Aurora-A, Huh7; format: cell-based, human; conditions: Huh7, 0–60 μM, 48 h
Description: as §2

caspase-3 [10] = experiment: Western blot of cleaved caspase-3, Hep3B; format: cell-based, human; conditions: 10 μM sorafenib, 30 μM conventional curcumin, 48 h
Description: as §2, §3, §4, §5, §6, §7, §8, §9, §10

[11] = humans; 20 mg of piperine given concomitantly with 2 g of curcumin; cited from earlier work
[12] = rats; piperine given concomitantly with curcumin; cited from earlier work
[13] = 50 mg/kg, n = 5, ref [6] of supplement
[14] = 340 mg/kg, n = 3, ref [5] of supplement
[15] = 500 mg/kg, n = 6, ref [7] of supplement

Question: Which cell viability (Hep3B cells [1]) does the source give for `COc1cc(/C=C/C(=O)CC(=O)/C=C/c2ccc(O)c(OC)c2)ccc1O` [conventional curcumin, curcumin] here?
Answer: inhibited cell viability

Question: And the LC3-II (LC3-II)?
Answer: significantly induced accumulation

Question: What about the “percentage of cells undergoing early apoptosis (annexin V+/PI–) and late apoptosis (annexin V+/PI+)” value (Huh7 cells [2]) of the same molecule?
Answer: increased

Question: What about the IC50 (PLC5 cells) of the same molecule?
Answer: 82.5 µM

Question: What about the AUC0-t [3, 13] of the same molecule?
Answer: 8.76 ng·h/mL

Question: What about the Cmax [3, 13] of the same molecule?
Answer: 4.07 ± 0.56 ng/mL

Question: And the Tmax [3, 13]?
Answer: 30 min

Question: What about the AUC0-t [3, 14] of the same molecule?
Answer: 80 ng·h/mL

Question: And the Cmax [3, 14]?
Answer: 2.39 ± 1.66 ng/mL

Question: And the Tmax [3, 14]?
Answer: 30 min

Question: What about the AUC0-t [3, 15] of the same molecule?
Answer: 60 ng·h/mL

Question: And the Cmax [3, 15]?
Answer: 60 ± 10 ng/mL

Question: What about the Tmax [3, 15] of the same molecule?
Answer: 42 ± 5.4 min

Question: And the “apoptosis rate (sub-G1 population)” value (Hep3B cells [4])?
Answer: 13.5%

Question: And the dissolution rate ([5]; 0 minutes)?
Answer: 0.00%

Question: And the dissolution rate ([5]; 5 minutes)?
Answer: 9.80%

Question: What about the dissolution rate ([5]; 10 minutes) of the same molecule?
Answer: 13.60%

Question: What about the dissolution rate ([5]; 15 minutes) of the same molecule?
Answer: 14.05%

Question: And the dissolution rate ([5]; 20 minutes)?
Answer: 17.28%

Question: What about the dissolution rate ([5]; 30 minutes) of the same molecule?
Answer: 19.41%

Question: And the dissolution rate ([5]; 45 minutes)?
Answer: 24.06%

Question: And the “mitochondrial membrane potential (ΔΨm)” value (Huh7 cells [6])?
Answer: significantly induced mitochondrial membrane potential breakdown

Question: What about the IC50 (Mahlavu cells) of the same molecule?
Answer: 35.4 µM

Question: What about the IC50 (Huh7 cells [7]; Huh-7, 24 h, 24 h (Supplementary Figure S4)) of the same molecule?
Answer: ~90 µM

Question: And the IC50 (Huh7 cells [7]; Huh-7, 48 h, 48 h (Supplementary Figure S4))?
Answer: ~90 µM

Question: What about the IC50 (Huh7 cells [7]; Huh-7, 72 h, 72 h (Figure 6A)) of the same molecule?
Answer: 53.3 µM

Question: And the IC50 (Huh7 cells [7]; Huh-7, 72 h, 72 h (Supplementary Figure S4))?
Answer: ~60 µM

Question: What about the IC50 (Huh7 cells [7]; Huh-7, 96 h, 96 h (Supplementary Figure S4)) of the same molecule?
Answer: ~45 µM

Question: And the IC50 (Huh7 cells [7]; Huh-7, 120 h, 120 h (Supplementary Figure S4))?
Answer: ~30 µM

Question: And the cell viability (Huh7 cells [7])?
Answer: inhibited cell viability

Question: And the “caspase-3 activity (cleaved form)” value (caspase-3 [8])?
Answer: increased

Question: And the ERK phosphorylation (ERK)?
Answer: down-regulation

Question: What about the AUC0-t/Dose [9] of the same molecule?
Answer: 0.0022 ± 0.0024

Question: And the AUC0-t ([9]; male, Sprague Dawley)?
Answer: 1.1 ± 1.2 ng·h/mL

Question: What about the Cmax ([9]; male, Sprague Dawley) of the same molecule?
Answer: 0.704 ± 0.272 ng/mL

Question: What about the Tmax ([9]; male, Sprague Dawley) of the same molecule?
Answer: 75 ± 49.8 min

Question: And the “level of Aurora-A” value (Aurora-A)?
Answer: significant decrease

Question: And the “levels of cleaved caspase-3 proteins” value (caspase-3 [10])?
Answer: increased

Question: Which results are given for `O=C(/C=C/C=C/c1ccc2c(c1)OCO2)N1CCCCC1` [piperine]?
Answer: increase of serum curcumin [11]: 20 times; increase of serum curcumin [12]: 1.56 times

Question: What does the source list for `CNC(=O)c1cc(Oc2ccc(NC(=O)Nc3ccc(Cl)c(C(F)(F)F)c3)cc2)ccn1` [sorafenib]?
Answer: cell viability (Hep3B cells [1]): inhibited cell viability; apoptosis rate (sub-G1 population) (Hep3B cells [4]): 10.9%; cell viability (Huh7 cells [7]): inhibited cell viability; levels of cleaved caspase-3 proteins (caspase-3 [10]): increased
